Legend:
physchem = settings: pH 7.4
Description: In order to check the hydrolytic stability of DAN in buffered media, we used a HPLC method to check the stability of 20 μM DAN in phosphate buffered saline (PBS) at physiological pH of 7.4, at 37 °C.
The chromatographic data were acquired using the Waters Breeze software (version 3.20). Analyses were performed on a Phenomenex C18 column (150 × 4.6 mm i.d., 3 µm particle size; Phenomenex srl, Castel Maggiore, Italy) using a mobile phase of methanol/water (75:25 v/v), with aqueous formic acid 0.1%. The used flow rate was 0.5 mL/min and the injection volume was 20 µL. Wavelength UV-Vis detector was set at 380 nm.
The chemical stability of dantrolene sodium was evaluated in a phosphate buffered saline solution pH 7.4 (10 mM HPO4^2−/H2PO4^−, 100 mM NaCl) at 37 °C. Samples were tested in triplicate starting from three different stocks solution (1 mM), which were prepared separately.

[1] = DPPH radical scavenging assay; assay type: physicochemical; settings: compound 50 μM, DPPH 100 μM
Source text: Starting from these evidences, we tested DAN in two in vitro models of radical scavenging activity, i.e., the 1,1-diphenyl-2-picryl-hydrazyl (DPPH) and 2,2′-azinobis-(3-ethylbenzothiazoline-6-sulfonic acid) (ABTS) free radical production. Both generate stable nitrogen radicals showing high absorption in visible spectrum, thus allowing easy and straightforward spectrophotometric measures. […] It can be assumed that the antioxidant activity of DAN is independent from its radical scavenging properties.
Already published protocols for DPPH and […] radical scavenging were used. The scavenging of the radical DPPH^·, or the monocation radical ABTS^·+, were determined by measuring the loss of absorbance at 515 or 755 nm, respectively. Samples were prepared in clear polystyrene flat-bottomed 96-well microplates. […] A preliminary absorbance reading at 755 nm allowed to determine the actual ABTS^·+ concentration (normally 60–70 μM; extinction coefficient ε = 12,000) and set the final concentration of inhibitors to 0.2[ABTS^·+]. 215 μL of ABTS^·+ solution were mixed with 35 μL of stock solution of inhibitors and the decrease in absorbance was monitored. Antioxidant activity was determined from Equation (2) as the percentage of radical production of inhibitor containing samples, compared with control: % radical production = 100 × ABSsample/ABScontrol(2)

[2] = target: T1, native CAC (mitochondrial rat liver extract) (Rattus norvegicus, UniProt P97521); assay: Transport activity of native CAC from mitochondrial extract reconstituted into liposomes; assay type: biochemical; settings: after 30 min of incubation; concentration range 1–200 μM; read-out: EC50 of activation of native CAC
T1 construct: Mitochondrial rat liver extract (0.3 mg proteins in 3% Triton X-100) containing native CAC was reconstituted into liposomes; from tissue; host or cells: rat liver mitochondrial Triton X-100 extract
T1 sequence (P97521 1-301): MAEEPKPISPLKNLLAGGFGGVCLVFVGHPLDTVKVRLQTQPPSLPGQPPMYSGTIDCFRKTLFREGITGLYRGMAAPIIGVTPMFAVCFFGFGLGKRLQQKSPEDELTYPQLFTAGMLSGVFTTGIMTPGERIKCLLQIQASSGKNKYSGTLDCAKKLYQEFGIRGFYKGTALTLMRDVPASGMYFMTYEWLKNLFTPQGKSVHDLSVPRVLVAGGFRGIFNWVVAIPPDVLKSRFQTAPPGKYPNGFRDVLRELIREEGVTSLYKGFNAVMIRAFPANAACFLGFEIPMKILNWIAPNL
Description: To detect the effect of DAN on native CAC, mitochondrial extract was reconstituted into liposomes and transport activity was measured adding various concentrations of compound. In Figure 7A, the dose–response curve is shown. […] Thus, the effect of different concentrations of DAN was tested also on the purified recombinant wild-type (WT) CAC carrier reconstituted into liposomes, measuring the antiport rate of carnitine.
Mitochondrial rat liver extract (0.3 mg proteins in 3% Triton X-100) containing native CAC was reconstituted into liposomes by removing the detergent from the mixed micelles through a hydrophobic ion-exchange column containing the resin Amberlite XAD-4, as described previously. […]
Before starting the transport activity, proteoliposomes were passed through a Sephadex G-75 column (0.7 cm diameter; 15 cm height; Pharmacia, Milan, Italy) to remove the external substrate. […] Finally, the external substrate was removed by chromatography on Sephadex G-75 columns (0.7 cm diameter; 10 cm height) and intraliposomal radioactivity was measured by a liquid scintillation counter (Perkin Elmer, Milan, Italy).
EC50 values were calculated using AATBioquest EC50 calculator [60]. […]

[3] = set-up: method as in PMID 11735355; settings: cited from earlier work

## O=C1CN(/N=C/c2ccc(-c3ccc([N+](=O)[O-])cc3)o2)C(O)=N1 [Dantrolene]
physchem
  recovery at 60 h, 20 μM: 92%
[1]
  DPPH radical scavenging activity: no activity
[2]
  EC50: 18 ± 5 µM
[3]
  antioxidant potency, Fe3+/Fe2+ reduction: high antioxidant potency
